Measurements from patent US8653041B2, “Antibacterial aminoglycoside analogs” (Achaogen, Inc., priority 2010, dated 2014).
In brackets after ≈: the same amount, converted by molar mass. Like-named read-outs stand apart in the source and are kept apart here.

Legend:
Acinetobacter baumannii = experiment: MIC, CLSI broth microdilution, Acinetobacter baumannii panel; type: cell-based; settings: Acinetobacter baumannii, read-out: MIC
Method: (§1) Minimum inhibitory concentrations (MIC) were determined by reference Clinical and Laboratory Standards Institute (CLSI) broth microdilution methods per M7-A7 [2006]. Quality control ranges utilizing E. coli ATCC 25922, P. aeruginosa ATCC 27853 and S. aureus ATCC 29213, and interpretive criteria for comparator agents were as published in CLSI M100-S17 [2007]. Briefly, serial two-fold dilutions of the test compounds were prepared at 2× concentration in Mueller Hinton Broth. The compound dilutions were mixed in 96-well assay plates in a 1:1 ratio with bacterial inoculum. The inoculum was prepared by suspension of a colony from an agar plate that was prepared the previous day. Bacteria were suspended in sterile saline and added to each assay plate to obtain a final concentration of 5×10^5 CFU/mL. The plates were incubated at 35 C for 20 hours in ambient air.
The MIC panel presented in Table 2 contains 29 isolates of Acinetobacter baumannii: strains 1-24 are clinical isolates from around the world collected between 2004-2007 which contain representative resistance mechanisms commonly found in Acinetobacter baumannii, such as AAC(3)-I and II, AAC(6′)-I, ANT(2″)-I, APH(3′)-VI, and perm/efflux; strains 25-29 are susceptible.

[1] = 14-day rat toxicology (nephrotoxicity), once-daily subcutaneous injection
Method: The study design utilized once-daily subcutaneous injection administration to the rat for 14 days and assessment of reversibility of any changes following a 28-day recovery period.
The dose volume administered to each animal was 1 mL/kg.

Pseudomonas aeruginosa = experiment: MIC, CLSI broth microdilution, Pseudomonas aeruginosa panel; type: cell-based; settings: Pseudomonas aeruginosa, read-out: MIC
Method: as §1
The MIC panel presented in Table 1 contains 27 isolates of Pseudomonas aeruginosa: strains 1-22 are clinical isolates from around the world collected between 2004-2007 which contain representative resistance mechanisms commonly found in Pseudomonas, such as the AAC(6′)-I, AAC(6′)-II, APH(3′)-IIb, ANT(2″)-I, and perm/efflux; strains 23-27 are susceptible.

Compound: NC[C@@H]1O[C@H](O[C@H]2[C@@H](O)[C@H](O[C@@H]3[C@@H](O)[C@H](NC(=O)[C@@H](O)CN)C[C@H](N)[C@H]3O[C@H]3O[C@H](CNCCO)[C@@H](O)C[C@H]3N)O[C@@H]2CO)[C@H](N)[C@@H](O)[C@@H]1O [Compound 20]
- MIC (Acinetobacter baumannii; A. baumannii clinical strain 1 (resistant clinical isolate)): 1 to 8 µg/mL (≈ 1.37 to 11 µM)
- MIC (Acinetobacter baumannii; A. baumannii clinical strain 2 (resistant clinical isolate)): 1 to 8 µg/mL (≈ 1.37 to 11 µM)
- MIC (Acinetobacter baumannii; A. baumannii clinical strain 3 (resistant clinical isolate)): ≤ 1 µg/mL
- MIC (Acinetobacter baumannii; A. baumannii clinical strain 4 (resistant clinical isolate)): 16 to 32 µg/mL (≈ 21.9 to 43.8 µM)
- MIC (Acinetobacter baumannii; A. baumannii clinical strain 5 (resistant clinical isolate)): ≤ 1 µg/mL
- MIC (Acinetobacter baumannii; A. baumannii clinical strain 6 (resistant clinical isolate)): 1 to 8 µg/mL (≈ 1.37 to 11 µM)
- MIC (Acinetobacter baumannii; A. baumannii clinical strain 7 (resistant clinical isolate)): ≤ 1 µg/mL
- MIC (Acinetobacter baumannii; A. baumannii clinical strain 8 (resistant clinical isolate)): ≤ 1 µg/mL
- MIC (Acinetobacter baumannii; A. baumannii clinical strain 9 (resistant clinical isolate)): ≤ 1 µg/mL
- MIC (Acinetobacter baumannii; A. baumannii clinical strain 10 (resistant clinical isolate)): 1 to 8 µg/mL (≈ 1.37 to 11 µM)
- MIC (Acinetobacter baumannii; A. baumannii clinical strain 11 (resistant clinical isolate)): ≤ 1 µg/mL
- MIC (Acinetobacter baumannii; A. baumannii clinical strain 12 (resistant clinical isolate)): ≤ 1 µg/mL
- MIC (Acinetobacter baumannii; A. baumannii clinical strain 13 (resistant clinical isolate)): ≤ 1 µg/mL
- MIC (Acinetobacter baumannii; A. baumannii clinical strain 14 (resistant clinical isolate)): ≤ 1 µg/mL
- MIC (Acinetobacter baumannii; A. baumannii clinical strain 15 (resistant clinical isolate)): ≤ 1 µg/mL
- MIC (Acinetobacter baumannii; A. baumannii clinical strain 16 (resistant clinical isolate)): 1 to 8 µg/mL (≈ 1.37 to 11 µM)
- MIC (Acinetobacter baumannii; A. baumannii clinical strain 17 (resistant clinical isolate)): 1 to 8 µg/mL (≈ 1.37 to 11 µM)
- MIC (Acinetobacter baumannii; A. baumannii clinical strain 18 (resistant clinical isolate)): 1 to 8 µg/mL (≈ 1.37 to 11 µM)
- MIC (Acinetobacter baumannii; A. baumannii clinical strain 19 (resistant clinical isolate)): 1 to 8 µg/mL (≈ 1.37 to 11 µM)
- MIC (Acinetobacter baumannii; A. baumannii clinical strain 20 (resistant clinical isolate)): 1 to 8 µg/mL (≈ 1.37 to 11 µM)
- MIC (Acinetobacter baumannii; A. baumannii clinical strain 21 (resistant clinical isolate)): ≤ 1 µg/mL
- MIC (Acinetobacter baumannii; A. baumannii clinical strain 22 (resistant clinical isolate)): 8 to 16 µg/mL (≈ 11 to 21.9 µM)
- MIC (Acinetobacter baumannii; A. baumannii clinical strain 23 (resistant clinical isolate)): ≤ 1 µg/mL
- MIC (Acinetobacter baumannii; A. baumannii clinical strain 24 (resistant clinical isolate)): 1 to 8 µg/mL (≈ 1.37 to 11 µM)
- MIC (Acinetobacter baumannii; A. baumannii strain 25 (susceptible)): ≤ 1 µg/mL
- MIC (Acinetobacter baumannii; A. baumannii strain 26 (susceptible)): ≤ 1 µg/mL
- MIC (Acinetobacter baumannii; A. baumannii strain 27 (susceptible)): ≤ 1 µg/mL
- MIC (Acinetobacter baumannii; A. baumannii strain 28 (susceptible)): ≤ 1 µg/mL
- MIC (Acinetobacter baumannii; A. baumannii strain 29 (susceptible)): ≤ 1 µg/mL
- mortality ([1]; 10, 30 or 100 mg/kg/day subcutaneous, once daily, 14 days, Sprague-Dawley rat): did not result in mortality at any dose
- macroscopic or microscopic changes to the kidneys ([1]; rat, in vivo): nor any significant macroscopic or microscopic changes to the kidneys
- MIC (Pseudomonas aeruginosa; P. aeruginosa clinical strain 1 (resistant clinical isolate)): ≤ 1 µg/mL
- MIC (Pseudomonas aeruginosa; P. aeruginosa clinical strain 2 (resistant clinical isolate)): ≤ 1 µg/mL
- MIC (Pseudomonas aeruginosa; P. aeruginosa clinical strain 3 (resistant clinical isolate)): 1 to 8 µg/mL (≈ 1.37 to 11 µM)
- MIC (Pseudomonas aeruginosa; P. aeruginosa clinical strain 4 (resistant clinical isolate)): 1 to 8 µg/mL (≈ 1.37 to 11 µM)
- MIC (Pseudomonas aeruginosa; P. aeruginosa clinical strain 5 (resistant clinical isolate)): 1 to 8 µg/mL (≈ 1.37 to 11 µM)
- MIC (Pseudomonas aeruginosa; P. aeruginosa clinical strain 6 (resistant clinical isolate)): 1 to 8 µg/mL (≈ 1.37 to 11 µM)
- MIC (Pseudomonas aeruginosa; P. aeruginosa clinical strain 7 (resistant clinical isolate)): ≤ 1 µg/mL
- MIC (Pseudomonas aeruginosa; P. aeruginosa clinical strain 8 (resistant clinical isolate)): 1 to 8 µg/mL (≈ 1.37 to 11 µM)
- MIC (Pseudomonas aeruginosa; P. aeruginosa clinical strain 9 (resistant clinical isolate)): ≤ 1 µg/mL
- MIC (Pseudomonas aeruginosa; P. aeruginosa clinical strain 10 (resistant clinical isolate)): 1 to 8 µg/mL (≈ 1.37 to 11 µM)
- MIC (Pseudomonas aeruginosa; P. aeruginosa clinical strain 11 (resistant clinical isolate)): ≤ 1 µg/mL
- MIC (Pseudomonas aeruginosa; P. aeruginosa clinical strain 12 (resistant clinical isolate)): ≤ 1 µg/mL
- MIC (Pseudomonas aeruginosa; P. aeruginosa clinical strain 13 (resistant clinical isolate)): 8 to 16 µg/mL (≈ 11 to 21.9 µM)
- MIC (Pseudomonas aeruginosa; P. aeruginosa clinical strain 14 (resistant clinical isolate)): ≤ 1 µg/mL
- MIC (Pseudomonas aeruginosa; P. aeruginosa clinical strain 15 (resistant clinical isolate)): 1 to 8 µg/mL (≈ 1.37 to 11 µM)
- MIC (Pseudomonas aeruginosa; P. aeruginosa clinical strain 16 (resistant clinical isolate)): ≤ 1 µg/mL
- MIC (Pseudomonas aeruginosa; P. aeruginosa clinical strain 17 (resistant clinical isolate)): 1 to 8 µg/mL (≈ 1.37 to 11 µM)
- MIC (Pseudomonas aeruginosa; P. aeruginosa clinical strain 18 (resistant clinical isolate)): 1 to 8 µg/mL (≈ 1.37 to 11 µM)
- MIC (Pseudomonas aeruginosa; P. aeruginosa clinical strain 19 (resistant clinical isolate)): 16 to 32 µg/mL (≈ 21.9 to 43.8 µM)
- MIC (Pseudomonas aeruginosa; P. aeruginosa clinical strain 20 (resistant clinical isolate)): 16 to 32 µg/mL (≈ 21.9 to 43.8 µM)
- MIC (Pseudomonas aeruginosa; P. aeruginosa clinical strain 21 (resistant clinical isolate)): 1 to 8 µg/mL (≈ 1.37 to 11 µM)
- MIC (Pseudomonas aeruginosa; P. aeruginosa clinical strain 22 (resistant clinical isolate)): 1 to 8 µg/mL (≈ 1.37 to 11 µM)
- MIC (Pseudomonas aeruginosa; P. aeruginosa strain 23 (susceptible)): ≤ 1 µg/mL
- MIC (Pseudomonas aeruginosa; P. aeruginosa strain 24 (susceptible)): ≤ 1 µg/mL
- MIC (Pseudomonas aeruginosa; P. aeruginosa strain 25 (susceptible)): ≤ 1 µg/mL
- MIC (Pseudomonas aeruginosa; P. aeruginosa strain 26 (susceptible)): ≤ 1 µg/mL
- MIC (Pseudomonas aeruginosa; P. aeruginosa strain 27 (susceptible)): ≤ 1 µg/mL
